The values that follow are results of earlier work, collected in patent US20130230592A1, “NOVEL OMEGA-3 AND OMEGA-6 FATTY ACID COMPOSITIONS AND USES THEREOF” (priority 2010, published 2013).

For the data set the following is noted: after oral intake of 750 mg EPA.

The structures appear in SMILES notation.

On to `CCC=CCC=CCC=CCC=CCC=CCCCC(=O)O` [EPA, eicosa-5,8,11,14,17-pentaenoic acid], for which the plasma level result is on record as “about 417 μmol/L”.
